Data: patent US20250345283A1, “MACROPHAGE-DERIVED ENGINEERED VESICLES FOR TARGETED DELIVERY AND TREATMENT” (University of Kentucky Research Foundation, priority 2020, published 2025)
Each block holds one compound with its values, some of them ahead of it.

Experiments:
A549 cells = assay: A549 cell viability (alamar blue) after cisplatin-loaded A549 vesicles or free cisplatin; assay type: cell-based, human; conditions: cisplatin 3 μg
Protocol: A549 cells (60 million) were used to generate vesicles for delivery. Cells were scraped from culture in 20 mL of sucrose buffer containing protease inhibitor. The cell solution was collected in a 50 mL conical tube and pelleted at 2000 rpm at 25° C. for 2 min. The solution was aspirated off, and the pellet was resuspended in 8 mL of 8.33 mM cisplatin in sucrose buffer solution or 20 mg cisplatin/8 mL sucrose buffer solution plus protease inhibitor. The cell solution was fragmented using N2 cavitation at 300 psi at 4° C. for 5 min. The resulting cell slurry was centrifuged at 4000 g for 10 min at 4° C. The supernatant from centrifugation was transferred to a 25 mL ultracentrifuge tube for 10,000 g centrifugation for 20 min at 4° C. The supernatant from the UCF tube was then transferred to a new 25 mL ultracentrifuge tube and centrifuged at 100,000 g for 60 min at 4° C. The pellet in the UCF tube was washed with 500 μL of sucrose solution, and the residual solution was pipetted out and discarded. Seven hundred fifty microliters of sucrose buffer solution was added to the UCF tube, and the pellet was resuspended via pipetting. Empty vesicles were generated in the exact same way except in the absence of cisplatin. A549 cells (30,000) were plated in each well of a 96-well plate and allowed to seed for 24 h. During that time, the growth media was exchanged for 250 μL of fresh HEK media containing either cisplatin in solution (4.17 mM), cisplatin-loaded vesicles, empty vesicles, or untreated media cisplatin solution in HEK media. The media was aspirated off. Two hundred microliters of Optimem was added followed by 20 μL of alamar blue. […] The plate was read using a FlexStation plate reader. […] Cell viability was determined using a fluorescence assay (alamar blue), where the fluorescence intensity scales with the population of live cells. […] Vesicles were then added to A549 cells in culture, and the cell proliferation was compared to cells alone and those in the presence of free cisplatin in solution at the same levels (3 μg) as were measured in the vesicle solution. […]

M2 macrophages = assay: Uptake of M1EVs by M2 macrophages in the presence of dynasore; assay type: cell-based, mouse; conditions: Dynasore 80 μM
Protocol: Dynamin activity is an integral component of both endocytosis and phagocytosis. Dynasore, a dynamin inhibitor, has been widely used to study the process of internalization of exosomes from the surface of the macrophage. […] The uptake of fluorescently labeled M1EVs by M2 BMDMs was compared in the presence and absence of dynasore. Dynasore (80 μM) was added to cultured macrophages 20 min prior to the addition of labeled vesicles. M2 macrophages were left to incubate with M1EVs for 2 h and subsequently imaged by wide-field microscopy. […] The integrated density of the fluorescence signal was calculated to compare the uptake of M1EVs by M2 macrophages. […] Similar vesicle uptake control experiments were performed in the presence of the vehicle, DMSO, at an equal concentration. There was no significant effect of DMSO on the M1EV uptake process by M2 macrophages relative to the control with no DMSO or dynasore. Macrophages are well-established phagocytotic cells.

A549 xenograft [1] = assay: In vivo targeting of DiR-labeled cell-derived vesicles, IVIS imaging; set-up: species or system mouse; conditions: tail vein injection, imaging 24 h postinjection
Protocol: Athymic nude mice were injected with A549 cells (NSCLC, immortalized) in the right shoulder and monitored for 3-4 weeks until measurable xenograft tumors were observed. RAW cells were cultured in vitro by standard methods. Cell-derived vesicles were manufactured by the Richards lab as described above and loaded with DiR near-infrared fluorescent dye. Prepared vesicles were administered, and mice were then imaged approximately 24, 48, and 72 hours later. Mice were anesthetized for imaging using isoflurane. Epifluorescence was measured using an IVIS Spectrum In vivo Imaging System (PerkinElmer). Vesicles were labeled with DiR near-infrared fluorescent dye, which was excited at 710 nm, with emission measured at 780 nm. Fluorescent signal intensity (i.e., total radiant efficiency) within regions of interest (ROI) were quantified using Living Image software (PerkinElmer), correcting for background fluorescence using distal site ROI within the same mouse.
RAW264.7 cells (100 million) were scraped in 40 mL of sucrose buffer solution with protease inhibitor. Vesicles were prepared as described above. The cells were labeled using DiR at 2 μM for 30 min at 37° C. Samples were injected intravenously to the mouse, through the tail vein. Approximately 1×10^11 vesicles were delivered per injection. All animal experiments were repeated three times. […]

A549 xenograft [2] = assay: In vivo delivery of DiR-labeled M1EVs to tumor xenografts, IVIS imaging; set-up: species or system mouse; conditions: 2×10^10 vesicles, tail vein, imaging 48 and 72 h post injection
Protocol: A549 cells (1×10^6) were injected subcutaneously into the interscapular region of 6-week-old athymic nude mice. The mice were monitored until palpable xenograft tumors developed greater than 200 mm3. M1EVs were generated using 100 million M1 macrophages by the procedure mentioned above. A NanoSight 300 multiple particle tracking system was used to determine the mean diameter and the concentration of MEVs. M1EVs were then labeled with the DiR near-infrared fluorescent dye. Briefly, 1 μL of 1 mM DiR was added to 199 μL of the vesicle resuspension so that the final concentration of DiR in the vesicle resuspension was 5 µM. DiR-labeled vesicles were separated from free DiR using a size exclusion PD MidiTrap column equilibrated with PBS. 100 μL of DiR-labeled M1EVs was then injected into the lateral tail vein of tumor-bearing mice. Isoflurane gas was used to anesthetize mice for imaging 72 h post injection using an IVIS Spectrum In vivo Imaging System (PerkinElmer) controlled with LivingImage software (PerkinElmer). Epifluorescence images were obtained using 710 nm excitation and 760 nm emission filters, f/stop number 4 and binning factor 4, with a 35 s exposure.
The free dye was separated from MEVs using PD Miniprep columns. […] After the tumor xenograft reached at least 100 mm3, 2×10^10 vesicles were injected through the tail vein of each of the three different mice. […]

Compound: N.N.[Cl][Pt][Cl] [free cisplatin, cisplatin]
A549 cell death (A549 cells; 24 h): no apparent cell death | A549 cell death (A549 cells; 48 h): 15% | A549 cell death (A549 cells; 72 h): 50%

Compound: O=C(N/N=C/c1ccc(O)c(O)c1)c1cc2ccccc2cc1O [Dynasore]
effect on cell viability of macrophages (M2 macrophages): no effect on the cell viability | reduction in uptake of vesicles relative to the control (M2 macrophages; M1EVs with M2 macrophages 2 h): 64%

localisation of DiR fluorescence in tumor-bearing mice (A549 xenograft [1]): nonspecific accumulation | localisation of DiR fluorescence in tumor-bearing mice (A549 xenograft [2]): nonspecific accumulation
Compound: CCCCCCCCCCCCCCCCCCN1/C(=C/C=C/C=C/C=C/C2=[N+](CCCCCCCCCCCCCCCCCC)c3ccccc3C2(C)C)C(C)(C)c2ccccc21.[I-] [DiR]
